Columns and labels:
Glyoxal oxidase [1] = biological target: T1, Glyoxal oxidase (Phanerodontia chrysosporium, UniProt Q01772); conditions: cited from earlier work
T1 sequence (Q01772 23-559): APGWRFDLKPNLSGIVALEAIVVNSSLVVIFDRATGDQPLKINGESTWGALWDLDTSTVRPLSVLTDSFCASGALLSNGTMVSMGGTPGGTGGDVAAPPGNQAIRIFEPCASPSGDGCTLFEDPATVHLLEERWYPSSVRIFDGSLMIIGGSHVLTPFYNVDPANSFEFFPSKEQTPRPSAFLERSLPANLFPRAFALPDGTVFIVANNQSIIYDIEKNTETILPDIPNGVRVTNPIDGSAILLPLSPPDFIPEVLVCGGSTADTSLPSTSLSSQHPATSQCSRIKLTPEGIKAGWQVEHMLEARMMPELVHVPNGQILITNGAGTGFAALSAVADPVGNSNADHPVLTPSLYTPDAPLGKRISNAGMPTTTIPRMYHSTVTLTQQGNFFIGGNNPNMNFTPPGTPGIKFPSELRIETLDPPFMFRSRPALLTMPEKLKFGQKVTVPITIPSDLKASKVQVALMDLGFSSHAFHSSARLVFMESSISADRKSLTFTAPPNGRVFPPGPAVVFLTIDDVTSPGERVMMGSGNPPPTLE

Glyoxal oxidase [2] = biological target: T1, Glyoxal oxidase; assay: Effect of PAM reductant on glyoxal oxidase activity and glyoxylate assays; assay type: biochemical; parameters: Dr. James Whittaker, OGI School of Science and Engineering (gift); conditions: reductant for PAM catalysis
Source text: Application of the assays of the invention to the quantification of PAM-produced glyoxylate required two alterations of the PAM assay, as well as one change to the common glycolate oxidase assay which has previously been mentioned. Without these specific alterations the assays would be rendered non-stoichiometric and produce anomalous data. First, to address the changes to the PAM assay, a new method for enzyme protection due to hydroxyl radical formation produced during catalysis was necessary as the use of catalase has previously been the method of choice. Catalase catalyzes the disproportionate reaction of H2O2 to H2O and O2, and removal of hydrogen peroxide is detrimental to the assay methods. […] Second, a reducing agent is necessary for the PAM catalysis. Ascorbate is frequently used in the art for this purpose. […] As an alternative to the foregoing, ascorbate may be used in the PAM-catalyzed reaction, but later removed (e.g., by deactivating with ascorbate oxidase) prior to assaying for glyoxylate.

[3] = biological target: T2, peptidylglycine α-amidating monooxygenase (Rattus norvegicus, UniProt P14925); assay: PAM treatment of hippurate: benzamide by HPLC, glyoxylate by malate synthase/malate dehydrogenase/MTS/PMS system; assay type: biochemical; conditions: for Benzamide Produced / Glyoxylate Produced: PAM added to 2.5 mM hippurate
T2 sequence (P14925 36-976): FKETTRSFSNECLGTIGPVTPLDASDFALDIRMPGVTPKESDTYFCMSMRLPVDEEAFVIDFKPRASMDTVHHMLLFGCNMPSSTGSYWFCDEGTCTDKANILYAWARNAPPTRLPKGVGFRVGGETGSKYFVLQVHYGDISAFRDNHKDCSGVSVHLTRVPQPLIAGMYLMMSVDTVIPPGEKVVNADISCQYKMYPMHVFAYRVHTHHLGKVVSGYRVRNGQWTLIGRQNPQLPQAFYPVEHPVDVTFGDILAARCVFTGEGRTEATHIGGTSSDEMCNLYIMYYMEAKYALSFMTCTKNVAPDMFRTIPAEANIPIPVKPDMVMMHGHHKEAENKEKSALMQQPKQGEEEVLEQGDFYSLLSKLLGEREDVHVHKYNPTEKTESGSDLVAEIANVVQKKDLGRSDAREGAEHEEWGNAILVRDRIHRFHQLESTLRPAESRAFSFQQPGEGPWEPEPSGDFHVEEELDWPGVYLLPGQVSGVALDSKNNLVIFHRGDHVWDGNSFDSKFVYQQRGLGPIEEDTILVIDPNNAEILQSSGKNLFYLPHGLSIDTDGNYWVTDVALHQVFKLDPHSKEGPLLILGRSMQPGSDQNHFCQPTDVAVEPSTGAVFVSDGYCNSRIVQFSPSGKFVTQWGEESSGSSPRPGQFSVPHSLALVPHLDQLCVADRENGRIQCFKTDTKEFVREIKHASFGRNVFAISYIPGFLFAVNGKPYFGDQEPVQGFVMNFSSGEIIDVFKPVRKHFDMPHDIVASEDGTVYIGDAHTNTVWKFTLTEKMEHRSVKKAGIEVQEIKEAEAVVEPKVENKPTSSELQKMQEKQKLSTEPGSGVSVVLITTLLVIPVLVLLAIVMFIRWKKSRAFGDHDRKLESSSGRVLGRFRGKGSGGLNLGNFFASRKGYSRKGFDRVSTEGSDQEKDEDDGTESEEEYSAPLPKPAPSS
Protocol: Hippurate (N-benzoylglycine, C6H5-CO—NH—CH2-COO^−) is a PAM substrate that is oxidatively converted to benzamide and glyoxylate. […] At 10 min intervals over a period of 110 minutes, 45 μl aliquots may be removed and added to 10 μl of 6% (v/v) trifluoroacetic acid to terminate the reaction. Percent conversion of hippurate to benzamide may be determined at each time interval by reverse-phase HPLC.
Approximately 20 nanomoles of glyoxylate may be removed from the HPLC vials and added to a 0.9 ml solution that contain necessary components for the glyoxylate assay excluding the enzyme couple and MTS/PMS. Ascorbate may be eliminated from all samples, prior to glyoxylate determination, with 10 min incubation in the presence of 12 units of ascorbate oxidase at 37° C. Following ascorbate removal the addition of 100 μl enzyme couple and PMS/MTS may bring the assay to a final volume of 1 ml which contains 100 mM TEA-HC1 pH 7.8, 10 MM MgCl2, 400 μM acetyl-CoA, 500 μM NAD^+, 6 U/ml malate synthase, 6 U/ml malate dehydrogenase, and 12 units ascorbate oxidase. The glyoxylate concentration may be determined by measuring the absorbance increase at 490 nm after incubation at 37° C. for 1 hr. A control for this experiment was performed at each time point, and contained no hippurate.

PAM = biological target: T3, PAM (Rattus norvegicus, UniProt P14925); assay: PAM dependent conversion of N-dansyl-Tyr-Val-Gly verified by RP-HPLC; assay type: biochemical; conditions: 20 μM substrate, PAM 15 U/L, 1.0 mM catechol, one hour at 37° C.
T3 construct: Unigene Labs, Inc. (Fairfield, N.J.), gift
T3 sequence (P14925 36-715 isoform P14925-2 limits assumed): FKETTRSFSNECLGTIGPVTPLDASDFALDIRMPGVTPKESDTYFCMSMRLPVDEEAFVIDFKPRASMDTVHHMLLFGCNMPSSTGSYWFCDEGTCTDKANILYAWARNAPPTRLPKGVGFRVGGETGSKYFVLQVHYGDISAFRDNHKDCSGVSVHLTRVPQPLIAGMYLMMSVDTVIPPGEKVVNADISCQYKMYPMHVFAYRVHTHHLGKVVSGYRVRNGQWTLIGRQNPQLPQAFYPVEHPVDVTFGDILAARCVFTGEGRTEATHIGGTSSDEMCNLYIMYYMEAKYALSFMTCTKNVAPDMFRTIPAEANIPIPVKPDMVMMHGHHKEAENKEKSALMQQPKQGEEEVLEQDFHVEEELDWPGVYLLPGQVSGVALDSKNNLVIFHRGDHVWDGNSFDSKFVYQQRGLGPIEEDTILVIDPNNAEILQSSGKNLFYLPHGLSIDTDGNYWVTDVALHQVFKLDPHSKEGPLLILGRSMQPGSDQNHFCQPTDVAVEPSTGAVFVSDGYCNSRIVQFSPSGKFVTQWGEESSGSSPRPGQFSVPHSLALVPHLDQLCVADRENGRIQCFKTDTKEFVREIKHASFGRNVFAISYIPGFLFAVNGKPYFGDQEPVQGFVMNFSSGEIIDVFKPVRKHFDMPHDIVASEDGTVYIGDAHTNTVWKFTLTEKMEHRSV
Protocol: Glyoxylate production was initiated by the addition of PAM (15 U/L) to a solution containing 40 mM MES/NaOH pH 6.0, 10 U/ml HRP, 1.0 mM catechol, 0.5 μM CU(SO4), 20 μM dansyl-Tyr-Val-Gly, the reaction proceeded for one hour at 37° C. […] The complete PAM dependent conversion of 20 μM N-dansyl-Tyr-Val-Gly to N-dansyl-Tyr-Val-NH2 and glyoxylate was verified by RP-HPLC to quantify the exact concentrations of [dansyl-Tyr-Val-NH2] and [glyoxylate] (100% conversion, 20 μM N-dansyl-Tyr-Val-NH2 and glyoxylate). Aliquots of the PAM produced glyoxylate pertaining to variable concentrations (0.3, 0.7, 1.6, and 2.3, μM) of were utilized for analysis by the GLOX assay. Aliquots of glyoxylate were added to a solution of 50 mM sodium phosphate pH 6.0, 50 μM Amplex red, at HRP (1 U/ml) and a final concentration of 0.4 mg/ml GLOX. All samples were incubated for 1 hour at 37° C. for one hour.
Glyoxylate production was initiated by the addition of PAM (15 U/L) to a solution containing 40 mM MES/NaOH pH 6.0, 10 U/ml HRP, 1.0 mM catechol, 0.5 μM Cu(SO4), 20 μM dansyl-Tyr-Val-Gly, the reaction proceeded for one hour at 37° C. The PAM dependent conversion of 20 μM N-dansyl-Tyr-Val-Gly to N-dansyl-Tyr-Val-NH2 and glyoxylate was verified to be 100% by a RP-HPLC assay, to ensure a 20 μM PAM produced glyoxylate solution. […]

CC(=O)C=O [Methylglyoxal]
Km (Glyoxal oxidase [1]): 640 µM

Oc1ccccc1O [catechol]
inhibition of the enzyme activity of glyoxal oxidase and of the spectrophotometric, fluorescent and luminescent assays (Glyoxal oxidase [2]): not an inhibitor

O=CC(=O)O [glyoxylic acid]
Km (Glyoxal oxidase [1]): 2500 µM
kcat/KM ratio, activity compared to methylglyoxal (Glyoxal oxidase [1]): 12.4%

O=C(O)CNC(=O)c1ccccc1 [hippurate, N-benzoylglycine]
[Glyoxylate]/[Benzamide] ([3]; Time 40): 1.2
Benzamide Produced ([3]; Time 40): 0.58 mM
Glyoxylate Produced ([3]; Time 40): 0.69 mM
[Glyoxylate]/[Benzamide] ([3]; Time 50): 0.96
Benzamide Produced ([3]; Time 50): 0.70 mM
Glyoxylate Produced ([3]; Time 50): 0.67 mM
[Glyoxylate]/[Benzamide] ([3]; Time 60): 0.89
Benzamide Produced ([3]; Time 60): 0.80 mM
Glyoxylate Produced ([3]; Time 60): 0.71 mM
[Glyoxylate]/[Benzamide] ([3]; Time 70): 0.83
Benzamide Produced ([3]; Time 70): 0.90 mM
Glyoxylate Produced ([3]; Time 70): 0.75 mM
[Glyoxylate]/[Benzamide] ([3]; Time 80): 0.79
Benzamide Produced ([3]; Time 80): 0.98 mM
Glyoxylate Produced ([3]; Time 80): 0.77 mM
[Glyoxylate]/[Benzamide] ([3]; Time 90): 1.2
Benzamide Produced ([3]; Time 90): 1.1 mM
Glyoxylate Produced ([3]; Time 90): 1.3 mM
[Glyoxylate]/[Benzamide] ([3]; Time 100): 1.1
Benzamide Produced ([3]; Time 100): 1.2 mM
Glyoxylate Produced ([3]; Time 100): 1.3 mM
[Glyoxylate]/[Benzamide] ([3]; Time 110): 1.0
Benzamide Produced ([3]; Time 110): 1.3 mM
Glyoxylate Produced ([3]; Time 110): 1.3 mM

N-dansyl-Tyr-Val-Gly
PAM dependent conversion to N-dansyl-Tyr-Val-NH2 and glyoxylate (PAM): 100%

From patent US20080227134A9, “Glyoxylate assays and their use of inden tifying natural amidated compounds” (priority 2005, published 2008)
